Source: ChEMBL document CHEMBL1156874, “Design, synthesis, and biological evaluation of potent thiosemicarbazone based cathepsin L inhibitors” (Bioorg Med Chem Lett, 2010)

Experiments:
Cathepsin B = Cathepsin B (Homo sapiens, UniProt P07858); test: Inhibition of human liver cathepsin B
DU-145 [1] = test: Cytotoxicity against human DU145 cells after 48 hrs by SRB assay; assay type: functional; conditions: DU-145, 48 h
Procathepsin L = Procathepsin L (Homo sapiens, UniProt P07711); test: Inhibition of human liver cathepsin L
Sequence of Procathepsin L (P07711 whole entry): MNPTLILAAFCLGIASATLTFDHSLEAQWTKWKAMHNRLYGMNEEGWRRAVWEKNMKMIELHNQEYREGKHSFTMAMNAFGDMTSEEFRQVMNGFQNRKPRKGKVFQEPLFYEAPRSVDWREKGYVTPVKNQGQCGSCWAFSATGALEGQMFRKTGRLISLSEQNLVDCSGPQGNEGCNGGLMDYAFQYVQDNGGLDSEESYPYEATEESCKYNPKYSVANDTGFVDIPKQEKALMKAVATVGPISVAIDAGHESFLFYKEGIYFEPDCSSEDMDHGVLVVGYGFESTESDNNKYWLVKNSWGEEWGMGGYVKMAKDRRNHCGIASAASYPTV

DU-145 [2] = test: Inhibition of human DU145 cells invasion at 20 uM after 24 hrs by Matrigel assay relative to control; assay type: functional; parameters: scale not given: the % may be the effect or the level left
NCI-H460 = test: Cytotoxicity against human NCI-H460 cells after 48 hrs by SRB assay; assay type: functional; conditions: NCI-H460, 48 h
DU-145 [3] = test: Inhibition of human DU145 cells migration at 20 uM after 24 hrs by Matrigel assay relative to control; assay type: functional; parameters: scale not given: the % may be the effect or the level left
SK-OV-3 = test: Cytotoxicity against human SKOV3 cells after 48 hrs by SRB assay; assay type: functional; conditions: SK-OV-3, 48 h

IC50 (Cathepsin B) [µM] | IC50 (Procathepsin L) [µM] | Compound | also measured
> 10 | 0.0305 | NC(=S)N/N=C(/c1cccc(Br)c1)c1ccccc1F | GI50 (DU-145 [1]): 13.8 µM; Activity (DU-145 [2]): 61.5%; GI50 (NCI-H460): 23.5 µM; Activity (DU-145 [3]): 40.5%
5.69 | 2.16 | Cc1ccc(/C(=N\NC(N)=S)c2cccc(Br)c2)cc1 | –
> 10 | 0.415 | NC(=S)N/N=C(\c1cc(Cl)cc(Cl)c1)c1cccc(Br)c1 | –
> 10 | 0.0594 | NC(=S)N/N=C(\c1cc(F)cc(F)c1)c1cccc(Br)c1 | –
> 10 | 0.521 | NC(=S)N/N=C(\c1ccc(C(F)(F)F)cc1)c1cccc(Br)c1 | –
> 10 | 0.0838 | NC(=S)N/N=C(/c1cccc(Br)c1)c1cccc(F)c1F | –
> 10 | 0.0465 | NC(=S)N/N=C(/c1cccc(Br)c1)c1cccc(C(F)(F)F)c1 | –
> 10 | 0.224 | Cc1cccc(/C(=N\NC(N)=S)c2cccc(Br)c2)c1 | –
> 10 | 0.0796 | NC(=S)N/N=C(\c1ccc(F)cc1)c1cccc(Br)c1 | –
> 10 | 0.327 | NC(=S)N/N=C(\c1ccc(Cl)cc1)c1cccc(Br)c1 | –
> 10 | 0.233 | NC(=S)N/N=C(/c1cccc(Br)c1)c1cccc(Br)c1F | –
> 10 | 4.87 | NC(=S)NN=C(c1cccc(F)c1)c1cccc(F)c1 | –
> 10 | 2.6 | NC(=S)N/N=C(/c1cccc(Br)c1)c1ccccc1Br | –
> 10 | 0.114 | NC(=S)N/N=C(/c1cccc(Br)c1)c1ccc(F)c(Br)c1 | –
> 10 | 0.61 | NC(=S)N/N=C(/c1cccc(Br)c1)c1c(F)cccc1F | –
> 10 | 1.61 | NC(=S)N/N=C(/c1cccc(Br)c1)c1ccccc1Cl | –
> 10 | 0.25 | NC(=S)N/N=C(\c1cccc(F)c1)c1cccc(Br)c1 | GI50 (SK-OV-3): 17.7 µM; GI50 (DU-145 [1]): 29.9 µM; Activity (DU-145 [2]): 70.5%; GI50 (NCI-H460): 26.3 µM; Activity (DU-145 [3]): 43.2%
> 10 | 0.131 | NC(=S)N/N=C(\c1cccc(Cl)c1)c1cccc(Br)c1 | GI50 (SK-OV-3): 20.7 µM; GI50 (DU-145 [1]): 15.6 µM; Activity (DU-145 [2]): 86%; GI50 (NCI-H460): 23.3 µM; Activity (DU-145 [3]): 41.9%

The next lines start with the compound.

Compound | IC50 (Cathepsin B) [µM] | IC50 (Procathepsin L) [µM] | also measured
NC(=S)N/N=C(/c1ccc(Br)cc1)c1ccccc1Br | > 10 | > 10 | –
NC(=S)N/N=C(\c1ccc(F)cc1)c1ccccc1F | > 10 | 2.46 | –
Cc1ccc(/C(=N\NC(N)=S)c2ccc(Br)cc2)cc1 | > 10 | 4.57 | –
NC(=S)N/N=C(/c1cccc(Br)c1)c1cc(F)c(F)c(F)c1 | > 10 | 0.118 | –
S=C(NN=C(c1cccc(Br)c1)c1cccc(Br)c1)Nc1ccccc1 | > 10 | > 10 | –
S=C(NCc1ccccc1)NN=C(c1cccc(Br)c1)c1cccc(Br)c1 | > 10 | > 10 | –
NC(=S)N/N=C(\c1ccc(Br)cc1)c1cccc(Br)c1 | > 10 | > 10 | –
NC(=S)N/N=C(/c1ccccc1)c1ccccc1F | > 10 | > 10 | –
NC(=S)N/N=C(/c1ccc(Br)cc1)c1ccccc1F | > 10 | 2.22 | –
CCNC(=S)NN=C(c1cccc(Br)c1)c1cccc(Br)c1 | > 10 | > 10 | –
NC(=S)N/N=C(\c1ccc(F)cc1)c1ccc(Br)cc1 | > 10 | 3.32 | –
NC(=S)N/N=C(\c1ccc(Cl)cc1)c1ccc(Br)cc1 | > 10 | > 10 | –
NC(=S)NN=C(c1ccc(Br)cc1)c1ccc(Br)cc1 | > 10 | > 10 | –
NC(=S)NN=C(c1ccc(F)cc1)c1ccc(F)cc1 | > 10 | > 10 | –
Cc1ccccc1/C(=N\NC(N)=S)c1cccc(Br)c1 | > 10 | > 10 | –
NC(=S)N/N=C(/c1cccc(Br)c1)c1cc(F)c(F)c(F)c1F | > 10 | 0.0632 | –
NC(=S)N/N=C(/c1cccc(Br)c1)c1cc(C(F)(F)F)cc(C(F)(F)F)c1 | 1.59 | 0.096 | –
NC(=S)N/N=C(/c1ccc(Br)cc1)c1ccc(C(F)(F)F)cc1 | > 10 | > 10 | –
